Source: publication PMC11892739, “Site-specific molecular glues for the 14-3-3/Tau pS214 protein–protein interaction via reversible covalent imine tethering” (RSC Medicinal Chemistry, 2025)

What was measured:
Format in all cases: binding
14-3-3ζ/p53 peptide = biological target: T1, 14-3-3ζ/p53 peptide (Homo sapiens, UniProt P63104); experiment: FA peptide screen, 14-3-3ζ titration to client peptide and compound: p53; conditions: 250 μM compound, 100 nM peptide; +1 Glu
T1 construct: made in house; host or cells: NiCo21 (DE3) E. coli
T1 sequence (P63104 whole entry, other chains not shown): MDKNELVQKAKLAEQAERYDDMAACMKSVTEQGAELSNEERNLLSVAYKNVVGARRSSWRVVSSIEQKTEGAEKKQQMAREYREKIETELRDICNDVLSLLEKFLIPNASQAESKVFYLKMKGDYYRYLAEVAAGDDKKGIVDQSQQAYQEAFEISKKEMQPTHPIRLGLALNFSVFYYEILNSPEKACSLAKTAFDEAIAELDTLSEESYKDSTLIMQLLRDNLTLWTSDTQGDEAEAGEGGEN
Experimental: (§1) Since the hub protein 14-3-3 binds to hundreds of phosphoprotein partners, selectivity of PPI stabilization is a major challenge. The interplay of chemical reactivity, and the topology and functionality of the composite binding pocket shaped by 14-3-3 and Tau potentially provide entries towards selective stabilization. […] Here, 14-3-3ζ was titrated to a constant concentration of client peptide (100 nM) and compound (250 μM) to determine the SF250μM values for the particular 14-3-3 PPI. A variety of 14-3-3 binding proteins was represented in this client panel whereby the size and hydrophobicity of the +1 amino acid were varied. […]
(§2) chromatography (HisTrap high performance cartridges, Cytiva). […] Dialyzed protein was concentrated to ∼40 mg/mL, analyzed by Q -Tof LC/MS, and aliquots were flash -frozen for storage at −80 °C. […]
(§3) 0.1% (v/v) Tween20, 0.1% (w/v) BSA). […] Measurements were performed directly after plate preparation, using a Tecan SPARK plate reader at room temperature ( λex: 485±20 nm; λem: 535±25 nm; mirror: automatic; flashes: 30; settle time: 1 ms; gain: optimal; Z -position: calculated from well). […] All data were analyzed using GraphPad Prism (10.0.1) and fitted with a four -parameter logistic model (4PL) to determine binding affinities (dissociation constant, KD). […]
(§4) Fluorescence Anisotropy – peptide screen […]

14-3-3ζ/p65 peptide = biological target: T2, 14-3-3ζ/p65 peptide (Homo sapiens, UniProt P63104); experiment: FA peptide screen, 14-3-3ζ titration to client peptide and compound: p65; conditions: 250 μM compound, 100 nM peptide; +1 Ile
T2 construct: made in house; host or cells: NiCo21 (DE3) E. coli
T2 sequence (P63104 whole entry, other chains not shown): as above
Experimental: as §1, §2, §3, §4

14-3-3ζ/CFTR peptide = biological target: T3, 14-3-3ζ/CFTR peptide (Homo sapiens, UniProt P63104); experiment: FA peptide screen, 14-3-3ζ titration to client peptide and compound: CFTR; conditions: 250 μM compound, 100 nM peptide; +1 Val
T3 construct: made in house; host or cells: NiCo21 (DE3) E. coli
T3 sequence (P63104 whole entry): as the sequence (P63104 whole entry, other chains not shown) above
T3 sequence (P13569 747-774 partner): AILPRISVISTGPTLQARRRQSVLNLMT
Experimental: as §1, §2, §3, §4

CCc1ccc(-c2nccn2-c2ccc(C=O)c(Br)c2)cc1 [Compound 18]
stabilization of 14-3-3/p53 peptide (in words) (14-3-3ζ/p53 peptide): did not show significant stabilizing activity
stabilization of 14-3-3/p65 peptide (in words) (14-3-3ζ/p65 peptide): minor off-target effects
stabilization of 14-3-3/CFTR peptide (in words) (14-3-3ζ/CFTR peptide): minor off-target effects
